Measurements: US5514694A, “Peptidyl ketoamides” (Georgia Tech Research Corp, priority 1993, dated 1996)
Read-outs that look alike come from different tables or passages of the source.

Assays:
Format in all cases: biochemical
[1] = molecular target: T1, human leukocyte elastase (HLE) (Homo sapiens, UniProt P08246); assay: HLE inhibition, MeO-Suc-Ala-Ala-Pro-Val-NA hydrolysis; conditions: Table 4, Z-Leu--AA--CONH-R
T1 sequence (P08246 30-267): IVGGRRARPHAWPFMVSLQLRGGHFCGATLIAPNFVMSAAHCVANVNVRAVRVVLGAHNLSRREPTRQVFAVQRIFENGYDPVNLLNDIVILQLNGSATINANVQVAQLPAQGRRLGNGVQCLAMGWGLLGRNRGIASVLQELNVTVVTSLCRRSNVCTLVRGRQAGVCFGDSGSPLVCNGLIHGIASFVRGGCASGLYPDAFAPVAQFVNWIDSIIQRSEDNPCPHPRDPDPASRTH
Description: (§1) Peptide α-ketoamides were assayed as reversible enzyme inhibitors. Various concentrations of inhibitors in Me2 SO were added to the assay mixture which contained buffer and substrate. The reaction was started by the addition of the enzyme and the hydrolysis rates were followed spectrophotometrically or fluorimetrically.
(§2) A 0.1M Hepes, 0.5M NaCl, pH 7.5 buffer was utilized for human leukocyte elastase (HLE), porcine pancreatic elastase (PPE), chymotrypsin and cathepsin G. A 0.1 Hepes, 0.01 M CaCl2, pH 7.5 buffer was utilized for trypsin, plasmin, and coagulation enzymes. A 50 mM Tris.HCl, 2 mM EDTA, 5 mM cysteine, pH 7.5 was used as a buffer for papain. A 88 mM KH2 PO4, 12 mM Na2 HPO4, 1.33 mM EDTA, 2.7 mM cysteine, pH 6.0 solution was used as a buffer for cathepsin B. A 20 mM Hepes, 10 mM CaCl2, 10 mM mercatoethanol, pH 7.2 buffer was utilized for calpain I and calpain II.
(§3) HLE and PPE were assayed with MeO-Suc-Ala-Ala-Pro-Val-NA and Suc-Ala-Ala-Ala-NA, respectively Nakajima et al., J. Biol. Chem. 254, 4027-4032 (1979); incorporated herein by reference!. Human leukocyte cathepsin G and chymotrypsin Aα were assayed with Suc-Val-Pro-Phe-NA Tanaka et al., Biochemistry 24, 2040-2047 (1985); incorporated herein by reference!. The hydrolysis of peptide 4-nitroanilides was measured at 410 nm ε410 =8800 M^-1 cm^-1; Erlanger et al., Arch. Biochem. Biophys. 95, pp 271-278 (1961); incorporated herein by reference!. Trypsin, thrombin, human plasma kallikrein, porcine pancreatic kallikrein, human factor XIa, and human plasmin were assayed with Z-Arg-SBzl or Z-Gly-Arg-SBu-i McRae et al., Biochemistry 20, 7196-7206 (1981); incorporated herein by reference!. All peptide thioester hydrolysis rates were measured with assay mixtures containing 4,4'-dithiodipyridine ε324 =19800 M^-1 cm^-1; Grasetti & Murray, Arch. Biochem. Biophys. 119, 41-49 (1967); incorporated herein by reference!.

calpain II from rabbit = assay: Calpain II inhibition, Suc-Leu-Tyr-AMC hydrolysis (KI); conditions: for Ki: read-out: KI Cal II
Description: (§4) HEPES, heparin, and A23187 were obtained from Calbiochem. Suc-Leu-Tyr-AMC and chromogenic substrates were obtained from Sigma. Calpain I was purified from human erythrocytes according to the method of Kitahara (Kitahara et al., J. Biochem. 95, 1759-1766) omitting the Blue-Sepharose step. Calpain II from rabbit muscle and cathepsin B were purchased from Sigma. Papain was purchased from Calbiochem.
as §1
(§5) Calpain I from human erythrocytes and calpain II from rabbit were assayed using Suc-Leu-Tyr-AMC Sasaki et al., J. Biol. Chem. 259, 12489-12494 (1984); incorporated herein by reference!, and the AMC (7-amino-4-methylcoumarin) release was followed fluorimetrically (excitation at 380 nm, and emmision at 460 nm). Calpains were assayed in 25 mM Tris pH=8.0, 10 mM CaC12. Fluorescence was followed using a Gilson FL-1A fluorometer or a Perkin-Elmer 203 Fluorescence spectrometer. Cathepsin B was assayed in 20 mM sodium acetate pH=5.2, 0.5 mM dithiothreitol using Bz-Phe-Val-Arg-p-nitroanilide as substrate. Alternately, cathepsin B was assayed with Z-Arg-Arg-AFC Barrett and Kirschke, Methods Enzymol. 80, 535-561 (1981); incorporated herein by reference!, and the AFC (7-amino-4-trifluoromethylcoumarin) release was followed fluorimetrically (excitation at 400 nm and emmision at 505 nm). Papain was assayed in 100 mM KPO4, 1 mM EDTA, 2.5 mM cysteine pH=6.0 using Bz-Arg-AMC or Bz-Arg-NA Kanaoka et al., Chem. Pharm. Bull. 25, 3126-3128 (1977); incorporated herein by reference! as a substrate. The AMC (7-amino-4-methylcoumarin) release was followed fluorimetrically (excitation at 380 nm, and emmision at 460 nm). Enzymatic hydrolysis rates were measured at various substrate and inhibitor concentrations, and KI values were determined by either Lineweaver-Burk plots or Dixon plots.
as §2

[2] = molecular target: T2, Calpain I from human erythrocytes (Homo sapiens, UniProt P07384); assay: Calpain I inhibition, Suc-Leu-Tyr-AMC hydrolysis (KI); conditions: read-out: KI Cal I
T2 construct: Calpain I was purified from human erythrocytes; from tissue; host or cells: human erythrocytes
T2 sequence (P07384 1-714): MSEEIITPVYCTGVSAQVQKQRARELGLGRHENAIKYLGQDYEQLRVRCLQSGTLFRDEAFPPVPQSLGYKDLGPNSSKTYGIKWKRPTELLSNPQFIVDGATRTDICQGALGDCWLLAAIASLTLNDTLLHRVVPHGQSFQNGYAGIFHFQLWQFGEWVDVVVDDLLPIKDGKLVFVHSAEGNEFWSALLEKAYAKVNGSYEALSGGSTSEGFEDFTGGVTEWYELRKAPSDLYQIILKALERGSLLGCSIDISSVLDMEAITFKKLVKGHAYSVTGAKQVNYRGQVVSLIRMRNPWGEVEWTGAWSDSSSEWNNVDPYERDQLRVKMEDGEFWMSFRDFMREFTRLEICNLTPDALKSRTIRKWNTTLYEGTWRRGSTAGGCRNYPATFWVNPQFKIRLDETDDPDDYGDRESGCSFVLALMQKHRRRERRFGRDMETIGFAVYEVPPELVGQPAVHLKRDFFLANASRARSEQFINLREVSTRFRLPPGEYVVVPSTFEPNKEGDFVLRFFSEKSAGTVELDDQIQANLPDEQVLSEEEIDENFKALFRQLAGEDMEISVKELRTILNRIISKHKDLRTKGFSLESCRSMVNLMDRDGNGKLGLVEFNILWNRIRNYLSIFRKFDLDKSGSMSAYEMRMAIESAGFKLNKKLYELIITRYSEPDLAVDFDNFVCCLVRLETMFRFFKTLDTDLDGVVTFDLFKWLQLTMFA
T2 sequence (P04632 1-268 partner): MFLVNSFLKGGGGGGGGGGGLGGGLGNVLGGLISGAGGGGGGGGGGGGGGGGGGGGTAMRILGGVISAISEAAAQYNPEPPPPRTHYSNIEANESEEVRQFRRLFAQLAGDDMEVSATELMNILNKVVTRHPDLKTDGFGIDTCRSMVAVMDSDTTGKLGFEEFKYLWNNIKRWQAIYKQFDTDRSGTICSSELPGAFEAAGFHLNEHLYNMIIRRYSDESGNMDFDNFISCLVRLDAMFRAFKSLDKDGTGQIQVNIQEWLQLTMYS
Summary of the method: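 Human erythrocyte calpain I and rabbit calpain II were followed by fluorimetric AMC release from Suc-Leu-Tyr-AMC at pH 8.0 (25 mM Tris, 10 mM CaCl2). Cathepsin B was run at pH 5.2 with 0.5 mM DTT on a p-nitroanilide substrate, or with Z-Arg-Arg-AFC (ex 400/em 505 nm). Enzyme was added last, and KI was taken from Dixon or Lineweaver-Burk analysis.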

cathepsin B = molecular target: T3, cathepsin B (Homo sapiens, UniProt P07858); assay: Cathepsin B inhibition (KI); conditions: read-out: KI Cat B
T3 construct: purchased Sigma
Description: as §4, §1, §5, §2

[3] = molecular target: T4, Human leukocyte cathepsin G (Homo sapiens, UniProt P08311); assay: Cathepsin G inhibition, Suc-Val-Pro-Phe-NA hydrolysis; conditions: Table 4, Z-Leu--AA--CONH-R
T4 sequence (P08311 21-255): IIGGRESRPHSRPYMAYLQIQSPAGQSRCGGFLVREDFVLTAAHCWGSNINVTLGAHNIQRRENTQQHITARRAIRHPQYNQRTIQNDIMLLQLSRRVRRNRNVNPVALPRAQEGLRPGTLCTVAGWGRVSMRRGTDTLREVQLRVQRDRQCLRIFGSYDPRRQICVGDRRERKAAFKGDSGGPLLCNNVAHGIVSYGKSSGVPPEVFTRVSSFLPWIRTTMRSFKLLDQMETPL
Description: as §1, §2, §3

[4] = Table 2, Z-Leu--AA--CONH--CH2 CH(OH)-R

Compound | IC50 [1] [nM] | Ki (calpain II from rabbit; Table 1, Z-Leu--AA--CONHR) [nM] | Ki ([2]; Table 1, Z-Leu--AA--CONHR) [nM] | Ki (cathepsin B; Table 1, Z-Leu--AA--CONHR) [nM] | Ki [2, 4] [nM] | IC50 [3] [nM] | inhibition of calpain II, in words (calpain II from rabbit) | Ki (calpain II from rabbit; [4]) [nM] | Ki (cathepsin B; [4]) [nM]
CCC(NC(=O)C(CC(C)C)NC(=O)OCc1ccccc1)C(=O)C(=O)NCCCN1CCOCC1 (stereo not drawn) [Z-Leu-Abu-CONH-(CH2)3 -4-morpholinyl, Z-Leu-Abu-CONH--(CH2)3 -4-Morpholinyl] | > 217000 | 41 | 140 | 6900 | – | – | – | – | –
CCC(NC(=O)C(CC(C)C)NC(=O)OCc1ccccc1)C(=O)C(=O)NCCCN1CCCC1=O (stereo not drawn) [Z-Leu-Abu-CONH--(CH2)3 -1-Pyrrolidinyl-2-one] | – | 270 | 1200 | 2000 | – | – | – | – | –
CCC(NC(=O)C(CC(C)C)NC(=O)OCc1ccccc1)C(=O)C(=O)NCC1(C)CC(O)CC(C)(C)C1 (stereo not drawn) [Z-Leu-Abu-CONH--CH2 --C6 H8 (1,3,3-(CH3)3 -5-OH)] | – | 69 | 420 | 890 | – | – | – | – | –
CC[C@H](NC(=O)[C@H](CC(C)C)NC(=O)OCc1ccccc1)C(=O)C(=O)NCC(O)c1ccc(OCc2ccccc2)cc1 (stereo partly drawn) [Z-Leu-Abu-CONH--CH2 CH(OH)C6 H4 (4-OCH2 Ph)] | – | – | – | – | 80 | > 102000 | – | – | –
CCC(NC(=O)C(CC(C)C)NC(=O)OCc1ccccc1)C(=O)C(=O)NCc1ccco1 (stereo not drawn) [Z-Leu-Abu-CONH-CH2 -2-furyl, Z-Leu-Abu-CONH--CH2 -2-Furyl] | 38000 | 33 | 800 | 6000 | – | – | – | – | –
CCC(NC(=O)C(CC(C)C)NC(=O)OCc1ccccc1)C(=O)C(=O)NCc1ccccn1 (stereo not drawn) [Z-Leu-Abu-CONH-CH2 -2-pyridyl, Z-Leu-Abu-CONH--CH2 -2-Pyridyl] | – | 17 | 640 | 3000 | – | – | best inhibitor of calpain II | – | –
CCC(NC(=O)C(CC(C)C)NC(=O)OCc1ccccc1)C(=O)C(=O)NCC1CCCO1 (stereo not drawn) [Z-Leu-Abu-CONH-CH2 -2-tetrahydrofuryl, Z-Leu-Abu-CONH--CH2 -2-Tetrahydrofuryl] | – | 66 | 330 | 4500 | – | – | – | – | –
CCC(NC(=O)C(CC(C)C)NC(=O)OCc1ccccc1)C(=O)C(=O)NCc1ccncc1 (stereo not drawn) [Z-Leu-Abu-CONH-CH2 -4-pyridyl, Z-Leu-Abu-CONH--CH2 -4-Pyridyl] | – | 110 | 1100 | 6400 | – | – | substantially poorer inhibitors | – | –
CC[C@H](NC(=O)[C@H](CC(C)C)NC(=O)OCc1ccccc1)C(=O)C(=O)NCc1cc(OC)cc(OC)c1 [Z-Leu-Abu-CONH-CH2 C6 H3 (3,5-(OCH3)2), Z-Leu-Abu-CONH--CH2 C6 H3 (3,5-(OCH3)2] | – | 22 | 2300 | 1800 | – | – | – | – | –
CCC(NC(=O)C(CC(C)C)NC(=O)OCc1ccccc1)C(=O)C(=O)NCC(O)c1ccccc1 (stereo not drawn) [Z-Leu-Abu-CONH-CH2 CH(OH)-Ph, Z-Leu-Abu-CONH--CH2 CH(OH)Ph] | – | – | – | – | 1100 | – | best inhibitor for calpain II | 15 | 370
CCCC(NC(=O)C(CC(C)C)NC(=O)OCc1ccccc1)C(=O)C(=O)NCCCN1CCOCC1 (stereo not drawn) [Z-Leu-Nva-CONH-(CH2)3 -4-morpholinyl, Z-Leu-Nva-CONH--(CH2)3 -4-Morpholinyl] | – | 100 | 250 | 4200 | – | – | – | – | –
CC(C)CC(NC(=O)OCc1ccccc1)C(=O)NC(Cc1ccccc1)C(=O)C(=O)NCc1ccc2ccccc2n1 (stereo not drawn) [Z-Leu-Phe-CONH-CH2 -2-quinolinyl, Z-Leu-Phe-CONH--CH2 -2-Quinolinyl] | – | 23 | 110 | 340 | – | – | – | – | –
Z-Leu-Abu-CONH--(CH2)2 C6 H4 (3-OCH3) [Z-Leu-Abu-CONH-(CH2)2 C6 H4 (3-OCH3)] | – | 86 | 110 | 310 | – | – | – | – | –
